Here are results for one molecule from patent publication US20250375417A1, “OREXIN RECEPTOR 2 (OX2R) AGONIST FOR USE IN NARCOLEPSY TYPE 1 (NT1)” (TAKEDA PHARMACEUTICAL COMPANY LIMITED, priority 2024, published 2025).

Common to all, as to assay type: in vivo, human
For assay [1], the system named is participants with NT1. Kind of assay: Maintenance of Wakefulness Test (MWT) sleep onset latency, Phase 2 NT1 trial (Example 1). As to the method: In some aspects of the methods described herein, the subject experiences a higher mean sleep latency (also referred to as sleep onset latency or SOL) from the Maintenance of Wakefulness Test (MWT) after a treatment period compared to an untreated subject. The MWT is a validated, objective measure that evaluates a person's ability to remain awake under soporific conditions for a defined period of time. Because there is no biological measure of wakefulness, wakefulness is measured indirectly by the inability or delayed tendency to fall asleep. This tendency to fall asleep is measured via electroencephalography-derived sleep latency in the MWT. One MWT, that includes four 40-minute wake trials, is done on each day specified in the Schedule of Activities of the trial. Sleep latency in each wake trial is recorded. Participants are required to stay awake in between the 4 MWT wake trials.
During each MWT wake trial, participants are instructed to sit in a bed or reclining chair and remain awake for as long as possible in a dimly lit room. Wake trials are ended after 40 minutes if no sleep occurs. If no sleep has been observed according to these rules, then the latency is defined as 40 minutes.
Randomization was stratified by region. Starting on the morning of Day 1, the study drug was administered at approximately the same time each day for 8 or 12 weeks. If the participant wished to enroll in the long-term extension (LTE) study described in Example 3 but the LTE study had not started at the participant's site when the participant completed the Week 8 visit of the current study, the participant was allowed to continue in the current study for an additional 4 weeks.
The following doses were studied: • Compound A Dose Regimen 1:0.5 mg twice daily approximately 3 hours apart. • Compound A Dose Regimen 2:2 mg twice daily approximately 3 hours apart. • Compound A Dose Regimen 3:2 mg followed by 5 mg approximately 3 hours apart. • Compound A Dose Regimen 4:7 mg once daily (QD). • Other products required for the study: Matching placebo.
Dose regimens included once daily (QD) or twice daily (approximately 3 hours apart) dosing. Study treatment was administered at approximately 8 AM and 11 AM. (Participants assigned to a QD dose regimen received placebo for the second dose. Participants assigned to placebo received placebo for both doses).
Endpoints included change from baseline to Week 8 in mean sleep onset latency on the Maintenance of Wakefulness Test (SOL-MWT; primary endpoint), ESS total score, weekly cataplexy rate (WCR), and occurrence of treatment-emergent adverse events (TEAEs).

Assay [2] has as its system participants with NT1. As to the kind of experiment: Daily sleep diaries (disturbing dreams), Phase 2 NT1 trial. From the text:
Polysomnography (PSG) was collected at baseline and after 27 and 54 days of treatment. Sleep was manually scored following AASM guidelines; sleep metrics were extracted then computed by whole night and by quarter-night. Continuous accelerometry (Empatica EmbracePlus watch) allowed assessment of sleep in a naturalistic manner at home. Daily sleep diaries were used to capture subjective reports. Mixed effects models were fit with treatment, quarter-night, visit, and their interactions as fixed effects and random intercepts per subject. A reference PSG dataset (Vilela M, et al. J Sleep Res 2024; e14216) from CHU Montpellier (49 clinical controls and 114 patients with NT1, all drug-free) was analyzed to establish DNS characteristics of NT1.
At baseline, participants reported disturbing dreams, which contribute to DNS, an average of 2.8 nights/week (no significant differences across cohorts) in response to “Did you have disturbing dreams, nightmares, or frightening dreams during the night?” These reductions potentially relate to improvements in REM regulation with Compound A.

Assay [3] concerns participants with NT1. Kind of assay: Exit interviews after Week 8, Phase 2 NT1 trial. The conditions noted are these: most Compound A participants (n=21). As to the method:
Treatment Satisfaction Questionnaire for Medication (TSQM) and exit interview results from the study were evaluated to explore the impact of Compound A treatment on individuals with ICSD-3-confirmed NT1. Participants aged 18-70 years, with an Epworth Sleepiness Scale (ESS) score>12, and ≥4 partial/complete episodes of cataplexy/week were included in the trial. Participants were randomized to oral Compound A (0.5 mg twice 3 hours apart, 2 mg twice 3 hours apart, 2 mg then 5 mg 3 hours later, or 7 mg once daily), or placebo.
FIG. 19 and FIG. 20 show the results of exit interview outcomes at Week 8. […] Symptoms rated as most important to improve from baseline were EDS, cataplexy and impaired cognitive function (FIG. 19); most frequently cited impacts were work/school-related, social/leisure activities and general quality of life (FIG. 20). Changes in impacts were meaningful for Compound A-treated participants but not for placebo-treated participants. Overall, 94.7% of Compound A-treated participants (18/19 respondents) would be willing to recommend Compound A to others with narcolepsy.

For `CCS(=O)(=O)N[C@@H]1[C@H](Cc2cccc(-c3cc(F)cc(F)c3)c2F)N(C(=O)C(C)(C)O)CC1(F)F` [Compound A, N-{(2S,3R)-4,4-difluoro-1-(2-hydroxy-2-methylpropanoyl)-2-[(2,3′,5′-trifluoro[1,1′-biphenyl]-3-yl)methyl]pyrrolidin-3-yl}ethanesulfonamide], the “LS mean (SE) change from baseline to Week 8 in SOL-MWT” value in the assay on participants with NT1 [1] (0.5 mg/0.5 mg) is 12.49 (2.13) minutes; in the assay on participants with NT1 [1] (2 mg/2 mg), 23.50 (2.04) minutes; with participants with NT1 [1] (2 mg/5 mg), 25.42 (2.07) minutes; with participants with NT1 [1] (7 mg), 14.96 (1.95) minutes. For the same molecule, the “Rate of disturbing dreams, average estimated change from baseline” value in the assay on participants with NT1 [2] (across all treated cohorts and weeks) is recorded as −1.5 nights/week. For the same molecule, the “Rate of disturbing dreams, range of estimated change from baseline” value in the assay on participants with NT1 [2] (range across all treated cohorts and weeks) is on record as −1.8 to −0.8 nights/week. For the same molecule, in the assay with participants with NT1 [3], the “Exit interview outcome: change in narcolepsy symptoms and functional impacts” value is “meaningful improvements in narcolepsy symptoms and functional impacts”.
